Assay [1] relates to Staphylococcus aureus. The assay is described as follows: Antibacterial activity against Staphylococcus aureus ATCC 29213. It is filed as functional.
Assay [2] has as its system Staphylococcus aureus. Put plainly: Antibacterial activity against methicillin resistant Staphylococcus aureus USA300. Type of assay: functional.
The subject of assay [3] is Staphylococcus aureus. Put plainly: Antibacterial activity against Staphylococcus aureus D83N. Type of assay: functional.
Assay [4] has as its system Salmonella typhimurium. The assay is described as follows: Antibacterial activity against efflux deficient Salmonella typhimurium 14028 deltatolC1::kan. It is filed as functional, Salmonella enterica subsp. enterica serovar Typhimurium. To be noted: Salmonella enterica.
Assay [5] relates to Salmonella typhimurium. The assay is described as follows: Antibacterial activity against Salmonella typhimurium ATCC 14028. It is filed as functional, Salmonella enterica subsp. enterica serovar Typhimurium. To be noted: Salmonella enterica.
Assay [6] has as its system Escherichia coli. The assay is described as follows: Antibacterial activity against Escherichia coli ATCC 25922. Type of assay: functional.
In assay [7] the test system is Acinetobacter baumannii. The assay is described as follows: Antibacterial activity against Acinetobacter baumannii ATCC 19606. Type of assay: functional.
Assay [8] concerns the target DNA gyrase (Staphylococcus aureus) (UniProt P0A0K8+P20831). Put plainly: Inhibition of Staphylococcus aureus DNA gyrase assessed as accumulation of single strand breaks at 10 uM incubated at 37 degreeC for 30 mins followed by incubation at 45 degreeC for 30 mins by ethidium bromide based agarose gel electrophoresis. It is filed as protein-complex assay. To be noted: time 60.0 min.

Assay [9] concerns the target T1, Topoisomerase IV (Staphylococcus aureus) (UniProt P0C1U9+P0C1S7). Put plainly: Inhibition of Staphylococcus aureus DNA topoisomerase IV assessed as accumulation of single strand breaks incubated at 37 degreeC for 30 mins followed by incubation at 45 degreeC for 30 mins by ethidium bromide based agarose gel electrophoresis. Type of assay: protein-complex assay. To be noted: time 60.0 min.

Assay [10] addresses DNA gyrase (Escherichia coli, UniProt P0AES4+P0AES6). Put plainly: Inhibition of Escherichia coli DNA gyrase using relaxed pBR322 DNA as substrate incubated at 37 degreeC for 30 to 45 mins followed by incubation at 75 degreeC for 10 mins by ethidium bromide staining based agarose gel electrophoresis method. Type of assay: protein-complex assay.
In assay [11] the target is T1, Topoisomerase IV (Staphylococcus aureus). The assay is described as follows: Inhibition of Staphylococcus aureus DNA topoisomerase IV assessed as accumulation of double strand breaks incubated at 37 degreeC for 30 mins followed by incubation at 45 degreeC for 30 mins by ethidium bromide based agarose gel electrophoresis. Type of assay: protein-complex assay. To be noted: time 60.0 min.

Assay [12] has as its target DNA gyrase (Staphylococcus aureus, UniProt P0A0K8+P20831). The assay is described as follows: Inhibition of Staphylococcus aureus DNA gyrase using relaxed pBR322 DNA as substrate incubated for 30 mins by ethidium bromide staining based agarose gel electrophoresis method. Type of assay: protein-complex assay.
Assay [13] addresses Topoisomerase IV (Staphylococcus aureus, UniProt P0C1S7+P0C1U9). Put plainly: Inhibition of Staphylococcus aureus topoisomerase-IV assessed as reduction in decatenation using kinetoplast DNA as substrate incubated for 20 mins by ethidium bromide staining based agarose gel electrophoresis method. Type of assay: protein-complex assay.

The values below come from ChEMBL document CHEMBL5579862, “Development of Novel Bacterial Topoisomerase Inhibitors Assisted by Computational Screening” (ACS Med Chem Lett, 2024).

≈ marks a conversion by molar mass, not a printed value. Calls of active or inactive are those of the source. Some results are limits rather than exact numbers.

The MIC is the smallest concentration in the dilution series that meets the test's criterion for growth inhibition. Lower therefore signals greater potency. `COc1ccc2ncc(F)c(CCN3CCC(/C=C\c4ccc(C)cc4)CC3)c2n1`: the minimum inhibitory concentration (MIC) in assay [1] turned out to be 4 µg/mL (≈ 9.86 µM); in assay [2], 4 µg/mL (≈ 9.86 µM); in assay [3] it was 32 µg/mL (≈ 78.9 µM); in assay [4], 8 µg/mL (≈ 19.7 µM).

`COc1ccc2ncc(F)c(CCN3CCC([C@H](O)[C@@H](O)c4ccc5c(c4)NC(=O)CO5)CC3)c2n1` yielded an MIC in assay [4] of 0.25 µg/mL (≈ 0.503 µM).

As for `COc1ccc2ncc(F)c(CCN3CCC(C(O)Cc4ccc5c(c4)OCC(=O)N5)CC3)c2n1` (stereo not drawn), the MIC in assay [4] amounted to 0.125 µg/mL (≈ 0.26 µM).

Turning to `O=c1ccc2ncc(=O)n3c2n1C[C@H]3CN1CCC(NCc2cc3c(cn2)OCCC3)CC1` [GEPOTIDACIN], the MIC came out at 2 µg/mL (≈ 4.46 µM) in assay [5]; 1 µg/mL (≈ 2.23 µM) in assay [6]; 8 µg/mL (≈ 17.8 µM) in assay [7]; 8 µg/mL (≈ 17.8 µM) in assay [3]; 0.125 µg/mL (≈ 0.279 µM) in assay [4].

In [3], `COc1ccc2ncc(F)c(CCN3CCC(C(O)Cc4ccc5c(c4)OCCO5)CC3)c2n1` (stereo not drawn) came in with an MIC of 4 µg/mL (≈ 8.56 µM).

In turn, `COc1ccc2ncc(F)c(CCN3CCC(C(N)Cc4ccc5c(c4)OCCO5)CC3)c2n1` (stereo not drawn) gave a minimum inhibitory concentration (MIC) in assay [3] of at least 16 µg/mL.

For the molecule `COc1ccc2ncc(F)c(CCN3CCC(/C=C\c4ccc5c(c4)NC(=O)CO5)CC3)c2n1`, the MIC in assay [1] was at least 64 µg/mL; in [7], 32 µg/mL (≈ 69.2 µM); in [3] it was at least 64 µg/mL; in assay [4], 16 µg/mL (≈ 34.6 µM).

For the molecule `COc1ccc2ncc(F)c(CCN3CCC(CCc4ccc(C)cc4)CC3)c2n1`, the MIC was at least 64 µg/mL in assay [5] and 4 µg/mL (≈ 9.82 µM) in assay [3].

Turning to `COc1ccc2ncc(F)c(CCN3CCC(/C=C/c4ccc5c(c4)OCCO5)CC3)c2n1`, the minimal inhibitory concentration (MIC) worked out at 0.25 µg/mL (≈ 0.556 µM) in assay [1]; 64 µg/mL (≈ 142 µM) in assay [5]; 8 µg/mL (≈ 17.8 µM) in assay [6]; 0.5 µg/mL (≈ 1.11 µM) in assay [2]; 8 µg/mL (≈ 17.8 µM) in assay [7]; 2 µg/mL (≈ 4.45 µM) in [3]. In [4], it took 0.125 µg/mL (≈ 0.278 µM) to inhibit growth (MIC).

Usually inhibition stands for how much of the control response was suppressed. As usually defined, the IC50 is the point on the concentration scale where inhibition reaches its midpoint. Turning to `COc1ccc2ncc(F)c(CCN3CCC(C(N)Cc4ccc(C)cc4)CC3)c2n1` (stereo not drawn), the inhibition result in assay [8] and in assay [9] was “Active” each time. The IC50 in assay [10] was over 400 µM; in assay [12], 5.05 µM; in assay [13], 82.6 µM. The inhibition in assay [11] is under 1%. In assay [3], this molecule gave an MIC of 32 µg/mL (≈ 75.7 µM).

As to `COc1ccc2ncc(F)c(CCN3CCC(CCc4ccc5c(c4)OCCO5)CC3)c2n1`, the minimum inhibitory concentration (MIC) in [3] came to 8 µg/mL (≈ 17.7 µM); in assay [4], 0.25 µg/mL (≈ 0.554 µM).

`COc1ccc2ncc(F)c(CCN3CCC([C@@H](O)[C@H](O)c4ccc5c(c4)OCCO5)CC3)c2n1` yielded an MIC in [2] of 1 µg/mL (≈ 2.07 µM).

Consider `COc1ccc2ncc(F)c(CCN3CCC([C@@H](O)[C@H](O)c4ccc(C)cc4)CC3)c2n1`, for which the MIC in [2] was 2 µg/mL (≈ 4.55 µM); in assay [4], 0.5 µg/mL (≈ 1.14 µM).

Consider `COc1ccc2ncc(F)c(CCN3CCC(C(=O)Cc4ccc5c(c4)OCCO5)CC3)c2n1`, for which the MIC in assay [1] was 4 µg/mL (≈ 8.59 µM); in assay [6], 64 µg/mL (≈ 137 µM); in assay [2] it was 4 µg/mL (≈ 8.59 µM); in assay [7], 64 µg/mL (≈ 137 µM); in assay [3], 32 µg/mL (≈ 68.7 µM); in assay [4], at least 1 µg/mL.

For `COc1ccc2ncc(F)c(CCN3CCC([C@H](O)[C@H](O)c4ccc5c(c4)OCCO5)CC3)c2n1`, in assay [1], the MIC is at most 0.13 µg/mL.

Regarding `COc1ccc2ncc(F)c(CCN3CCC([C@H](O)[C@H](O)c4ccc(C)cc4)CC3)c2n1`, the inhibition result in assay [9] was “Active”. The IC50 in assay [10] amounted to 17.1 µM; in [12], 0.065 µM; in assay [13], 3.31 µM. This molecule gave an MIC in [2] of 0.13 µg/mL (≈ 0.296 µM). For the same molecule, the inhibition in assay [11] was under 1%.

In the case of `COc1ccc2ncc(F)c(CCN3CCC([C@H](O)[C@@H](O)c4ccc(C)cc4)CC3)c2n1`, the MIC in assay [2] came out at 2 µg/mL (≈ 4.55 µM); in assay [7], 32 µg/mL (≈ 72.8 µM).

For `COc1ccc2ncc(F)c(CCN3CCC(C(=O)Cc4ccc5c(c4)NC(=O)CO5)CC3)c2n1`, the MIC in [1] was at most 0.13 µg/mL; in [5] it was 16 µg/mL (≈ 33.4 µM); in [6] it was 2 µg/mL (≈ 4.18 µM); in assay [7] it was 4 µg/mL (≈ 8.36 µM).

On to `COc1ccc2ncc(F)c(CCN3CCC([C@@H](O)[C@@H](O)c4ccc5c(c4)OCCO5)CC3)c2n1`, for which, in assay [2], the MIC was determined as 0.03 µg/mL (≈ 0.062 µM).

Take `COc1ccc2ncc(F)c(CCN3CCC([C@@H](O)[C@@H](O)c4ccc(C)cc4)CC3)c2n1`: the minimal inhibitory concentration (MIC) is 0.13 µg/mL (≈ 0.296 µM) in [1] and 0.25 µg/mL (≈ 0.569 µM) in [2].

Take `COc1ccc2ncc(F)c(CCN3CCC(NCc4ccc(C)cc4)CC3)c2n1`: the inhibition entry in [8] and in assay [9] was “Active” in each case. The MIC in assay [1] is at most 0.25 µg/mL; in assay [5], 32 µg/mL (≈ 78.3 µM); in assay [6], 4 µg/mL (≈ 9.79 µM); in assay [2], at most 0.25 µg/mL; in [7], 4 µg/mL (≈ 9.79 µM); in assay [3], 16 µg/mL (≈ 39.2 µM). The molecule further had an MIC in [4] of 0.5 µg/mL (≈ 1.22 µM). Moreover, the inhibition in [11] was under 1%. Further, the figures for the IC50 in assay [12] and in [13] were 0.004 µM and 0.69 µM, respectively.

For `COc1ccc2ncc(F)c(CCN3CCC(/C=C/c4ccc5c(c4)NC(=O)CO5)CC3)c2n1`, the MIC in [1] is 0.5 µg/mL (≈ 1.08 µM); in [5], 16 µg/mL (≈ 34.6 µM); in assay [2], at most 0.25 µg/mL; in assay [7] it was 8 µg/mL (≈ 17.3 µM); in assay [3], 16 µg/mL (≈ 34.6 µM); in assay [4] it was 0.25 µg/mL (≈ 0.541 µM).

As for `COc1ccc2ncc(F)c(CCN3CCC(/C=C/c4ccc(C)cc4)CC3)c2n1`, the MIC in [1] was 0.25 µg/mL (≈ 0.616 µM); in assay [5], at least 64 µg/mL; in assay [3], at least 32 µg/mL; in assay [4], 0.5 µg/mL (≈ 1.23 µM).

Take `COc1ccc2ncc(F)c(CCN3CCC(/C=C\c4ccc5c(c4)OCCO5)CC3)c2n1`: the MIC in assay [1] is 8 µg/mL (≈ 17.8 µM); in assay [5] it was at least 64 µg/mL; in assay [6] it was at least 64 µg/mL; in assay [2], 8 µg/mL (≈ 17.8 µM); in assay [7], 64 µg/mL (≈ 142 µM); in assay [3] it was at least 16 µg/mL. In [4], this molecule returned an MIC of 4 µg/mL (≈ 8.9 µM).

In assay [3], `COc1ccc2ncc(F)c(CCN3CCC([C@@H](O)[C@H](O)c4ccc5c(c4)NC(=O)CO5)CC3)c2n1` showed an MIC of at least 32 µg/mL.

In the case of `COc1ccc2ncc(F)c(CCN3CCC(C(O)Cc4ccc(C)cc4)CC3)c2n1` (stereo not drawn), the inhibition entry in [9] is “Active”. The IC50 in assay [10] stood at 12.4 µM; in assay [12], 0.24 µM; in [13], 2.29 µM. Further, the minimum inhibitory concentration (MIC) in [2] was determined as 0.25 µg/mL (≈ 0.59 µM); in [3], 8 µg/mL (≈ 18.9 µM); in assay [4], 1 µg/mL (≈ 2.36 µM). In addition, the inhibition in [11] is under 1%.
